Data reported in ChEMBL document CHEMBL4354807, “Natural Product Albiziabioside A Conjugated with Pyruvate Dehydrogenase Kinase Inhibitor Dichloroacetate To Induce Apoptosis-Ferroptosis-M2-TAMs Polarization for Combined Cancer Therapy” (J Med Chem, 2019).
Active and inactive are the calls of the source. The rule behind the calls is not given here.

How the values were obtained:
MCF7 [1] = assay: Antitumor activity against human MCF7 cells xenografted in BALB/c nude mouse assessed as tumor growth inhibition at 10 mg/kg, iv administered every two days for two weeks measured after 14 days; assay type: functional, organism-based
L02 = assay: Cytotoxicity against human LO2 cells assessed as reduction in cell viability after 72 hrs by MTT assay; assay type: cell-based; conditions: L02, 72 h
MCF7 [2] = assay: Induction of apoptosis in human MCF7 cells assessed as necrotic cells at 10 uM after 24 hrs by Annexin V-FITC/propidium iodide staining-based flow cytometric analysis (reference value: 0.10 %); assay type: functional
[3] = biological target: [Pyruvate dehydrogenase (acetyl-transferring)] kinase isozyme 1, mitochondrial (Homo sapiens) (UniProt Q15118); assay: Inhibition of PDK1 (unknown origin) expressed in human MCF7 cells using PDK tide as substrate measured after 90 mins in presence of ATP by ADP-Glo luminescent kinase assay
MCF7 [4] = assay: Induction of mitochondrial dysfunction in human MCF7 cells assessed as cell population with mitochondrial membrane potential collapse at 10 uM after 24 hrs by JC1 staining-based FACScalibur flow cytometry analysis (reference value: 2.74 %); assay type: functional
4T1 [5] = assay: Inhibition of glycolysis in mouse 4T1 cells expressing PDK assessed as reduction in intracellular lactate level at 10 uM after 6 hrs by microplate reader assay; assay type: functional, cell-based
MCF7 [6] = assay: Anticancer activity against human MCF7 cells overexpressing PDK assessed as reduction in cell viability after 72 hrs by MTT assay; assay type: functional, cell-based; conditions: MCF7, 72 h
MCF7 [7] = assay: (§1) Induction of metabolic reversal from aerobic glycolysis to oxidative phosphorylation in human MCF7 cells assessed as increase in extracellular acidification rate at 10 uM pretreated for 4 hrs followed by glucose addition after 25 mins by seahorse XF24 extracellular flux analyzer assay; assay type: functional, cell-based
MCF7 [8] = assay: Induction of ROS generation in human MCF7 cells assessed as ROS level at 10 uM after 24 hrs by DCFDA-fluorescence based flow cytometry (reference value: 6.57 %); assay type: functional
[9] = Toxicity in BALB/c nude mouse xenografted with human MCF7 cells assessed as effect on body weight at 10 mg/kg, iv administered every 2 days for 2 weeks measured after 14 days; assay type: organism-based; conditions: in vivo, 336 h
MCF7 [10] = assay: Induction of apoptosis in human MCF7 cells assessed as viable cells at 10 uM after 24 hrs by Annexin V-FITC/propidium iodide staining-based flow cytometric analysis (reference value: 93.39 %); assay type: functional; conditions: MCF7, 24 h, read-out: Activity
A-375 [11] = assay: Anticancer activity against human A375 cells expressing PDK assessed as reduction in cell viability after 72 hrs by MTT assay; assay type: functional, cell-based; conditions: A-375, 72 h
[12] = Toxicity in BALB/c nude mouse xenografted with human MCF7 cells assessed as mouse death at 10 mg/kg, iv administered every 2 days for 2 weeks measured after 14 days; assay type: organism-based; conditions: in vivo, 336 h
MCF7 [13] = assay: Induction of mitochondrial dysfunction in human MCF7 cells assessed as cell population with intact mitochondrial membrane potential at 10 uM after 24 hrs by JC1 staining-based FACScalibur flow cytometry analysis (reference value: 97%); assay type: functional
A-375 [14] = assay: Cytotoxicity against human A375 cells assessed as reduction in cell viability after 72 hrs by MTT assay; assay type: functional, cell-based; conditions: A-375, 72 h
MCF7 [15] = assay: Inhibition of glycolysis in human MCF7 cells assessed as reduction in extracellular lactate level at 10 uM after 6 hrs by microplate reader assay; assay type: functional, cell-based
MCF7 [16] = assay: as §1, with “mins followed by subsequent addition of oligomycin A after 50 mins” for “mins”; assay type: functional, cell-based
HCT-116 = assay: Anticancer activity against human HCT116 cells expressing PDK assessed as reduction in cell viability after 72 hrs by MTT assay; assay type: functional, cell-based; conditions: HCT-116, 72 h
MCF7 [17] = assay: Inhibition of glycolysis in human MCF7 cells assessed as reduction in intracellular lactate level at 10 uM after 6 hrs by microplate reader assay; assay type: functional, cell-based
[18] = Cytotoxicity against human HBMEC cells assessed as reduction in cell viability after 72 hrs by MTT assay; assay type: cell-based
MCF7 [19] = assay: as §1, with “decrease” for “increase”, “mins followed by subsequent addition of oligomycin A after 50 mins followed by 2-DG addition after 80 mins” for “mins”; assay type: functional, cell-based
4T1 [20] = assay: Anticancer activity against mouse 4T1 cells expressing PDK assessed as reduction in cell viability after 72 hrs by MTT assay; assay type: functional, cell-based; conditions: 4T1, 72 h
MCF7 [21] = assay: Induction of apoptosis in human MCF7 cells assessed as early apoptotic cells at 10 uM after 24 hrs by Annexin V-FITC/propidium iodide staining-based flow cytometric analysis (reference value: 3.53 %); assay type: functional
4T1 [22] = assay: Inhibition of glycolysis in mouse 4T1 cells expressing PDK assessed as reduction in extracellular lactate level at 10 uM after 6 hrs by microplate reader assay; assay type: functional, cell-based
MCF7 [23] = assay: (§2) Induction of metabolic reversal from aerobic glycolysis to oxidative phosphorylation in human MCF7 cells assessed as […] at 10 uM pretreated for 6 hrs followed by oligomycin A addition after 25 mins followed by subsequent addition of FCCP after 50 mins followed by antimycin/rotenone addition after 80 mins by seahorse XF24 extracellular flux analyzer assay; assay type: functional, cell-based
MCF7 [24] = assay: Cytotoxicity against human MCF7 cells assessed as cell death at 10 uM pretreated with Z-VAD-fmk followed by compound addition by MTT assay; assay type: functional, cell-based
MCF7 [25] = assay: Induction of apoptosis in human MCF7 cells assessed as late apoptotic cells at 10 uM after 24 hrs by Annexin V-FITC/propidium iodide staining-based flow cytometric analysis (reference value: 2.97 %); assay type: functional
MCF7 [26] = assay: Inhibition of glycolysis in human MCF7 cells assessed as reduction in extracellular lactate level at 30 uM after 6 hrs by microplate reader assay; assay type: functional, cell-based
MCF7 [27] = assay: as §1, with “30” for “10”, “mins followed by subsequent addition of oligomycin A after 50 mins” for “mins”; assay type: functional, cell-based
MCF7 [28] = assay: Induction of apoptosis in human MCF7 cells assessed as viable cells at 30 uM after 24 hrs by Annexin V-FITC/propidium iodide staining-based flow cytometric analysis (reference value: 93.39 %); assay type: functional; conditions: MCF7, 24 h, read-out: Activity
MCF7 [29] = assay: as §1, with “decline” for “increase”, “30” for “10”, “mins followed by subsequent addition of oligomycin A after 50 mins followed by 2-DG addition after 80 mins” for “mins”; assay type: functional, cell-based
[30] = Toxicity in BALB/c nude mouse xenografted with human MCF7 cells assessed as effect on body weight at 30 mg/kg, iv administered every 2 days for 2 weeks measured after 14 days; assay type: organism-based; conditions: in vivo, 336 h
4T1 [31] = assay: Inhibition of glycolysis in mouse 4T1 cells expressing PDK assessed as reduction in intracellular lactate level at 30 uM after 6 hrs by microplate reader assay; assay type: functional, cell-based
MCF7 [32] = assay: Antitumor activity against human MCF7 cells xenografted in BALB/c nude mouse assessed as tumor growth inhibition at 30 mg/kg, iv administered every two days for two weeks measured after 14 days; assay type: functional, organism-based
MCF7 [33] = assay: Induction of metabolic reversal from aerobic glycolysis to oxidative phosphorylation in human MCF7 cells assessed as […] at 30 uM pretreated for 4 hrs followed by glucose addition after 25 mins by seahorse XF24 extracellular flux analyzer assay; assay type: functional, cell-based
4T1 [34] = assay: Inhibition of glycolysis in mouse 4T1 cells expressing PDK assessed as reduction in extracellular lactate level at 30 uM after 6 hrs by microplate reader assay; assay type: functional, cell-based
MCF7 [35] = assay: Induction of apoptosis in human MCF7 cells assessed as early apoptotic cells at 30 uM after 24 hrs by Annexin V-FITC/propidium iodide staining-based flow cytometric analysis (reference value: 3.53 %); assay type: functional
MCF7 [36] = assay: Induction of apoptosis in human MCF7 cells assessed as necrotic cells at 30 uM after 24 hrs by Annexin V-FITC/propidium iodide staining-based flow cytometric analysis (reference value: 0.10 %); assay type: functional
MCF7 [37] = assay: Induction of mitochondrial dysfunction in human MCF7 cells assessed as cell population with mitochondrial membrane potential collapse at 30 uM after 24 hrs by JC1 staining-based FACScalibur flow cytometry analysis (reference value: 2.74 %); assay type: functional
MCF7 [38] = assay: Induction of ROS generation in human MCF7 cells assessed as ROS level at 30 uM after 24 hrs by DCFDA-fluorescence based flow cytometry (reference value: 6.57 %); assay type: functional
MCF7 [39] = assay: as §2, with “30” for “10”; assay type: functional, cell-based
MCF7 [40] = assay: Induction of mitochondrial dysfunction in human MCF7 cells assessed as cell population with intact mitochondrial membrane potential at 30 uM after 24 hrs by JC1 staining-based FACScalibur flow cytometry analysis (reference value: 97%); assay type: functional
MCF7 [41] = assay: Downregulation of PDK expression in human MCF7 cells at 2.5 to 10 uM after 48 hrs by Western blot analysis; assay type: functional, cell-based
[42] = Toxicity in BALB/c nude mouse xenografted with human MCF7 cells assessed as mouse death at 30 mg/kg, iv administered every 2 days for 2 weeks measured after 14 days; assay type: organism-based; conditions: in vivo, 336 h
MCF7 [43] = assay: Induction of apoptosis in human MCF7 cells assessed as late apoptotic cells at 30 uM after 24 hrs by Annexin V-FITC/propidium iodide staining-based flow cytometric analysis (reference value: 2.97 %); assay type: functional
MCF7 [44] = assay: Inhibition of glycolysis in human MCF7 cells assessed as reduction in intracellular lactate level at 30 uM after 6 hrs by microplate reader assay; assay type: functional, cell-based
MCF7 [45] = assay: Cytotoxicity against human MCF7 cells assessed as cell death at 30 uM pretreated with Z-VAD-fmk followed by compound addition by MTT assay; assay type: functional, cell-based

CC(=O)N[C@H]1[C@H](O[C@H]2CC[C@]3(C)[C@H]4CC=C5[C@@H]6CC(C)(C)CC[C@]6(C(=O)O)CC[C@@]5(C)[C@]4(C)CC[C@H]3C2(C)C)O[C@H](CO[C@@H]2OC[C@H](O)[C@H](O)[C@H]2O)[C@@H](O)[C@@H]1O
Activity (MCF7 [1]): Active
IC50 (L02): 33.2 µM
Activity (MCF7 [2]): 2.07%
inhibition [3]: inactive
Activity (MCF7 [4]): 25.86%
inhibition (4T1 [5]): inactive
IC50 (MCF7 [6]): 20.4 µM
Activity (MCF7 [7]): Active
Activity (MCF7 [8]): 26.43%
Activity [9]: Non-Toxic
viability at 10 µM (MCF7 [10]): 70.4%
IC50 (A-375 [11]): 5.73 µM
Activity [12]: Non-Toxic
Activity (MCF7 [13]): 72.69%
IC50 (A-375 [14]): 5.47 µM
inhibition (MCF7 [15]): inactive
Activity (MCF7 [16]): Active
IC50 (HCT-116): 21.6 µM
inhibition (MCF7 [17]): inactive
IC50 [18]: 37.1 µM
Activity (MCF7 [19]): Active
IC50 (4T1 [20]): 16.4 µM
Activity (MCF7 [21]): 18.5%
inhibition (4T1 [22]): inactive
Activity (MCF7 [23]): Active
Activity (MCF7 [24]): inactive
Activity (MCF7 [25]): 9.07%

O=C([O-])C(Cl)Cl.[Na+] [SODIUM DICHLOROACETATE]
IC50 (L02): > 100 µM
inhibition (MCF7 [26]): inactive
Activity (MCF7 [27]): Active
inhibition [3]: Active
viability at 30 µM (MCF7 [28]): 79.9%
Activity (MCF7 [29]): Active
Activity [30]: Non-Toxic
IC50 (MCF7 [6]): > 100 µM
inhibition (4T1 [31]): inactive
Activity (MCF7 [32]): Active
Activity (MCF7 [33]): Active
inhibition (4T1 [34]): inactive
Activity (MCF7 [35]): 12.57%
IC50 (A-375 [11]): > 100 µM
Activity (MCF7 [36]): 1.67%
Activity (MCF7 [37]): 14.63%
Activity (MCF7 [38]): 15.13%
Activity (MCF7 [39]): Active
Activity (MCF7 [40]): 84.95%
IC50 (HCT-116): > 100 µM
Activity (MCF7 [41]): inactive
IC50 [18]: > 100 µM
Activity [42]: Non-Toxic
IC50 (4T1 [20]): > 100 µM
Activity (MCF7 [43]): 5.86%
inhibition (MCF7 [44]): inactive
Activity (MCF7 [45]): inactive

O=c1[nH]cc(F)c(=O)[nH]1 [FLUOROURACIL]
Activity (MCF7 [1]): Active
IC50 (L02): 29.5 µM
Activity [9]: Non-Toxic
IC50 (A-375 [11]): 21.1 µM
Activity [12]: Non-Toxic
IC50 (HCT-116): 26.1 µM
IC50 [18]: 27.3 µM
IC50 (4T1 [20]): 28.1 µM

CC1(C)CC[C@]2(C(=O)O)CC[C@]3(C)C(=CC[C@@H]4[C@@]5(C)CC[C@H](O[C@@H]6O[C@H](CO[C@@H]7OC[C@H](O)[C@H](O)[C@H]7O)[C@@H](O)[C@H](O)[C@H]6NC(=O)CCl)C(C)(C)[C@@H]5CC[C@]43C)[C@@H]2C1
inhibition [3]: inactive
